Common to all, as to format: functional
For one assay, the target named is Bcl-2-related protein A1 (Mus musculus, UniProt Q07440).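 Also: confirmatory dose–response counterscreen on Bfl-1, used to check hits from a UBC13 polyubiquitin inhibitor campaign.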
For assay [1], the target named is Protein kinase C theta type (Homo sapiens, UniProt Q04759). As to the kind of experiment: Navigating the Kinome. Panel member name: PRKCQ.
Assay [2] addresses Serine/threonine-protein kinase TBK1 (Homo sapiens, UniProt Q9UHD2). Briefly: Navigating the Kinome. Panel member name: TBK1.
In the next assay the target is Activated CDC42 kinase 1 (Homo sapiens, UniProt Q07912). Briefly: Navigating the Kinome. Panel member name: ACK1.
Assay [3] has as its target Platelet-derived growth factor receptor alpha (Homo sapiens, UniProt P16234). As to the kind of experiment: Navigating the Kinome. Panel member name: PDGFRA.
For assay [4], the target named is Megakaryocyte-associated tyrosine-protein kinase (Homo sapiens, UniProt P42679).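 Also: affinity measured as one member of a kinase panel (Navigating the Kinome) against MATK.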
For assay [5], the target named is Serine/threonine-protein kinase 17A (Homo sapiens, UniProt Q9UEE5).
Sequence of Serine/threonine-protein kinase 17A (Q9UEE5 whole entry): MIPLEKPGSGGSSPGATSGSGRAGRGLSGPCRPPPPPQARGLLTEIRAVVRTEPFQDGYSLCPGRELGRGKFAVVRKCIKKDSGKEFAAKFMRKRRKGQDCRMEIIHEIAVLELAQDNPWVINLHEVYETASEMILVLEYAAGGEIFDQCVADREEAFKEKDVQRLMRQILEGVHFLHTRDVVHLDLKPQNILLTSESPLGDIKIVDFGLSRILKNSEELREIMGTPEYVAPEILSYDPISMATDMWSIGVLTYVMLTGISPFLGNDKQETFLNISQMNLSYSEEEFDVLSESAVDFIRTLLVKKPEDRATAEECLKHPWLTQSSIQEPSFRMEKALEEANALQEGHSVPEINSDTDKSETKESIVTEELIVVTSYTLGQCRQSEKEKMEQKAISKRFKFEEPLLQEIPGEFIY
A further assay deals with SRSF protein kinase 1 (Homo sapiens, UniProt Q96SB4).
Sequence of SRSF protein kinase 1 (Q96SB4 whole entry, the tested form may be a part): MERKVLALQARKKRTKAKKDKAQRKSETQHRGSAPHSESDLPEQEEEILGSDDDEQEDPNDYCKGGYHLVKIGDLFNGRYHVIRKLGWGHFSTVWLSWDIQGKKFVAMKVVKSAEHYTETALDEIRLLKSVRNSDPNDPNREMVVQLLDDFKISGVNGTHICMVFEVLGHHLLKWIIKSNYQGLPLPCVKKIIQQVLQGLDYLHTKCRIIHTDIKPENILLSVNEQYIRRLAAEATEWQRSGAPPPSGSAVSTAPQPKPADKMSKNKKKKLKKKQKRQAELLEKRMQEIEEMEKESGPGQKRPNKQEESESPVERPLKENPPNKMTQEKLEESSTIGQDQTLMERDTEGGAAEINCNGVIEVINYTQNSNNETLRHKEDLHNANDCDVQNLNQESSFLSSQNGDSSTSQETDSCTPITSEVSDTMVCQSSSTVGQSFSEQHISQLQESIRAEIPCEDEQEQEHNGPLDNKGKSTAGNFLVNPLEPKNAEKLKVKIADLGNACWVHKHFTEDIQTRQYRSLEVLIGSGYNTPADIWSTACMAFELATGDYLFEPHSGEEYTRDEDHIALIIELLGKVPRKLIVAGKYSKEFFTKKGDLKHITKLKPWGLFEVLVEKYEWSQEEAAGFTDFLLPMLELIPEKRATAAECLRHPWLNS
In a further assay the target is LIM domain kinase 1 (Homo sapiens, UniProt P53667). Briefly: Navigating the Kinome. Panel member name: LIMK1.
Sequence of LIM domain kinase 1 (P53667 whole entry, the tested form may be a part): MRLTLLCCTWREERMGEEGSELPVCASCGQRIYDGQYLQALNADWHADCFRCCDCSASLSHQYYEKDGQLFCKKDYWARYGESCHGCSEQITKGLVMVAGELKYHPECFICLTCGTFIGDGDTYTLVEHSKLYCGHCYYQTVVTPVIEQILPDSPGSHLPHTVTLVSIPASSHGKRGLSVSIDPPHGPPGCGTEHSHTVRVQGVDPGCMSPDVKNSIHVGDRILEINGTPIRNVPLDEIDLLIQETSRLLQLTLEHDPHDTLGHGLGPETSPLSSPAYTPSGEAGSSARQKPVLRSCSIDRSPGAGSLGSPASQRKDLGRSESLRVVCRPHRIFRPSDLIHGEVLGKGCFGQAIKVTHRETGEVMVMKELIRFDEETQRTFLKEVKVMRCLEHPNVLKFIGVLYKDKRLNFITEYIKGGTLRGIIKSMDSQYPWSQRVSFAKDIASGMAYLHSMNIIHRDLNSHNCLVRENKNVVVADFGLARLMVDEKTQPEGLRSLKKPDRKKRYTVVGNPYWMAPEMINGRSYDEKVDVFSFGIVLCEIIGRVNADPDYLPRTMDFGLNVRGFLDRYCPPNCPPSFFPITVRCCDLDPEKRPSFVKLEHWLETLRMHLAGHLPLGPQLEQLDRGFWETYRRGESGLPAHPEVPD
Assay [6] addresses MAP kinase-interacting serine/threonine-protein kinase 2 (Homo sapiens, UniProt Q9HBH9).
Assay [7] has as its target Glycogen synthase kinase-3 beta (Homo sapiens, UniProt P49841).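 Also: value comes from a broad kinome profiling panel, with GSK3B as the panel member.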
In the next assay the target is T1, Hexokinase HKDC1 (Homo sapiens, UniProt Q2TB90).
T1 sequence (Q2TB90 whole entry): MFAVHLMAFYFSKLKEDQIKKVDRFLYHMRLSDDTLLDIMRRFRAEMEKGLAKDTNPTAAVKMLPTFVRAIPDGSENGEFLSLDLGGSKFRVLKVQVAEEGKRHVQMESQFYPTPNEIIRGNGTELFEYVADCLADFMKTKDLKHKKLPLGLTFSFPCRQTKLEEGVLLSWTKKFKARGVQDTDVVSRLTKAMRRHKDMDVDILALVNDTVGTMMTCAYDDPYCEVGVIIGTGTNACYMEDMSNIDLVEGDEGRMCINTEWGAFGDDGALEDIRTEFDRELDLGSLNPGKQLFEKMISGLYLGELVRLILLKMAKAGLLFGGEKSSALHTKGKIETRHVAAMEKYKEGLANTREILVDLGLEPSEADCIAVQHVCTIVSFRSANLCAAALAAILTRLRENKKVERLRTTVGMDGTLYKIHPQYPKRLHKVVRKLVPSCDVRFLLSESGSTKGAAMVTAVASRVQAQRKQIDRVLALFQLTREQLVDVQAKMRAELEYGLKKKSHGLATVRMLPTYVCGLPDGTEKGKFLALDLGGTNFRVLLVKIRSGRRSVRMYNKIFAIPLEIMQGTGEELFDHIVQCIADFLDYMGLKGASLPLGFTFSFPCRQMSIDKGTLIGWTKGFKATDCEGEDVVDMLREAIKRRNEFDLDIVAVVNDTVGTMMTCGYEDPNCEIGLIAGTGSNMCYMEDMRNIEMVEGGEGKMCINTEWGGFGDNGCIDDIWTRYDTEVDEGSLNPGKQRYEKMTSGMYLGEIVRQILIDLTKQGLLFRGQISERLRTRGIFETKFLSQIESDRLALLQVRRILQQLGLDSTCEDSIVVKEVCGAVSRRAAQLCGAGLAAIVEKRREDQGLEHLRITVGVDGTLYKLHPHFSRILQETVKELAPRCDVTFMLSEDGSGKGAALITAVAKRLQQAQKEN
Briefly: HKDC1 hexokinase inhibitors, dose response, biochemical, W721R variant (AID 504729).

Active and inactive are the calls of the source. Where only a bound is given, the exact number is not on record here.

Sequence of Protein kinase C theta type (Q04759 whole entry): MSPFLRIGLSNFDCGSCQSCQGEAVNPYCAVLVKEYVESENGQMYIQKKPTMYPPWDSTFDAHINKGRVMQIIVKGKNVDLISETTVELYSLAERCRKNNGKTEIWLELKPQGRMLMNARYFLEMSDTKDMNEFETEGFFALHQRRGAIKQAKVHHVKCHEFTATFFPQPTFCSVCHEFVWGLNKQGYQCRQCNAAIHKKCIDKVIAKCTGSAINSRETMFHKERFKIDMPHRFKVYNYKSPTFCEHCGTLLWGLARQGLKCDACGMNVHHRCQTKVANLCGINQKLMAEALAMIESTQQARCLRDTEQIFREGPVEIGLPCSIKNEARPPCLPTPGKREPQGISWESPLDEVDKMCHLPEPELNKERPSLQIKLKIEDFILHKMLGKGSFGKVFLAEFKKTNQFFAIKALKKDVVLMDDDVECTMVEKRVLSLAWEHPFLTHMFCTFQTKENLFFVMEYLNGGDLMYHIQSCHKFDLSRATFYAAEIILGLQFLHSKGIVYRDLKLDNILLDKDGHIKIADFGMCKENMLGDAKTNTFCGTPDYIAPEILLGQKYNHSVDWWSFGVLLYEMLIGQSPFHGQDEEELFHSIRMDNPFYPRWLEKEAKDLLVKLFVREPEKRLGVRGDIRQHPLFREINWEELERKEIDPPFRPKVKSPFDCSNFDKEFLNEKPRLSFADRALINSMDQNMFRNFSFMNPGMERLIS
Sequence of Platelet-derived growth factor receptor alpha (P16234 whole entry): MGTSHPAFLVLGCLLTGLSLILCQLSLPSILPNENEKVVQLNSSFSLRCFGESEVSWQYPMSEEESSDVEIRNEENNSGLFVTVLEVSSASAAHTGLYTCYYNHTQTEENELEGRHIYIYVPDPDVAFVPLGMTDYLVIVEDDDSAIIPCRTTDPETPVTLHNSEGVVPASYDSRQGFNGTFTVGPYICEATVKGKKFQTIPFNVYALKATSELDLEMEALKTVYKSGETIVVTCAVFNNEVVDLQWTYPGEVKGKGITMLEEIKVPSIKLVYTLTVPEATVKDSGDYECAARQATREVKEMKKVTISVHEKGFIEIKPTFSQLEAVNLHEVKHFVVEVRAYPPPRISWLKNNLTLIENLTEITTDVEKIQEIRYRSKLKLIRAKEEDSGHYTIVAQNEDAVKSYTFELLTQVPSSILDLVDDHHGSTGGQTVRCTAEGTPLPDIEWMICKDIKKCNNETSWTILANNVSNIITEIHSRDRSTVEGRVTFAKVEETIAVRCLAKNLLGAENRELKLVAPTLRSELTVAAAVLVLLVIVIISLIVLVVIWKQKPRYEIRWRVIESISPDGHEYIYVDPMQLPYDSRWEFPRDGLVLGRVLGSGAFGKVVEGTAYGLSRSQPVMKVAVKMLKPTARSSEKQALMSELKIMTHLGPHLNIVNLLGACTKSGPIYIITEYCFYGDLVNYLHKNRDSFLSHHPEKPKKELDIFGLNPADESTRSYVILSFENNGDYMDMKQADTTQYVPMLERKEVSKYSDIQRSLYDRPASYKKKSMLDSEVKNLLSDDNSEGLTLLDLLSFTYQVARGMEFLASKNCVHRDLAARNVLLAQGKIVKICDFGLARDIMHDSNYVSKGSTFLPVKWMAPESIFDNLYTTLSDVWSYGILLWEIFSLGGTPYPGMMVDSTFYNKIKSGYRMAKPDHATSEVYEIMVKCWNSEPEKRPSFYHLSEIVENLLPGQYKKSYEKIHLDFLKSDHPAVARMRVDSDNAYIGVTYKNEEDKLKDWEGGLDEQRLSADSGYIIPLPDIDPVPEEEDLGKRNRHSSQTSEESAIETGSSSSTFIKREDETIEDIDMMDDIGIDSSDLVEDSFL
Sequence of Glycogen synthase kinase-3 beta (P49841 whole entry): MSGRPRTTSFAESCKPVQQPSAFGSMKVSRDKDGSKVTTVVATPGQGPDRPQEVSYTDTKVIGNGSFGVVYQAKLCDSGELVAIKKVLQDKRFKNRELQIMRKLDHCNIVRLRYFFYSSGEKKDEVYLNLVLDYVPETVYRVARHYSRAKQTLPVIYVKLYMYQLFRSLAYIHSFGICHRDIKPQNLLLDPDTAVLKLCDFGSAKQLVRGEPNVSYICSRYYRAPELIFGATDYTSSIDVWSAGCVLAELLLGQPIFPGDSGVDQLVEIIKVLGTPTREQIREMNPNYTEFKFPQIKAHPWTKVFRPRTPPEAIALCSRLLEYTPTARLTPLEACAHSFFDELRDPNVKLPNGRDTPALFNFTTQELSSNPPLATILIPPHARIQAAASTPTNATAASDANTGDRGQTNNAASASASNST
Sequence of MAP kinase-interacting serine/threonine-protein kinase 2 (Q9HBH9 whole entry): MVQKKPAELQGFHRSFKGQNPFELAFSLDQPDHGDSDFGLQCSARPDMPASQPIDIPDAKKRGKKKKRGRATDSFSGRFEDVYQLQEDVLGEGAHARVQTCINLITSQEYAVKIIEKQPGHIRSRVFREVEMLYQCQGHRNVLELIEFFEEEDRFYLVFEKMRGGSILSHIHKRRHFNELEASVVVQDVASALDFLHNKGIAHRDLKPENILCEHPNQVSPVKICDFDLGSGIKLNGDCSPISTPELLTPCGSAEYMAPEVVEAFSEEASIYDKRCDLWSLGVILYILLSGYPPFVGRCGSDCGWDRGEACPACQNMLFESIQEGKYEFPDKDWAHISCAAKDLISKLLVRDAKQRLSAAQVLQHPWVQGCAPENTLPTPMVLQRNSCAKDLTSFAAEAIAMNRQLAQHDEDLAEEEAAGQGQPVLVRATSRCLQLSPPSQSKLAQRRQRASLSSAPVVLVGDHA
Sequence of Bcl-2-related protein A1 (Q07440 whole entry): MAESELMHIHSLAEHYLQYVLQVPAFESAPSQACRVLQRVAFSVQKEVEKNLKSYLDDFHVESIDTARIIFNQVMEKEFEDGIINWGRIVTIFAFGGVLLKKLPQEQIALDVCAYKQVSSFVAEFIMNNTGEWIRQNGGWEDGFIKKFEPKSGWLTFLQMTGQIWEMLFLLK

One may read the IC50 as the midpoint of a concentration-inhibition curve. As for `CCCCCCCCCCC[N+](C)(C)CC/C=C1/c2ccccc2Sc2ccc(Cl)cc21`, the IC50 at Bcl-2-related protein A1 is 8260 nM (active).
The term Ki denotes a dissociation constant, usually derived from enzyme kinetics or from competition with a known ligand. For the molecule `CCn1c(-c2nonc2N)nc2cncc(C(=O)N3CCC(N)C3)c21` (configuration not stated), the Ki in assay [1] was 100 nM (active); in assay [2], > 3160 nM (inactive); at Activated CDC42 kinase 1, > 3980 nM (inactive); in [3], > 2510 nM (inactive).
On to `Cc1[nH]nc2ccc(-c3cncc(OCC(N)Cc4c[nH]c5ccccc45)c3)cc12` (configuration not stated), for which the Ki in assay [4] is > 2000 nM (inactive); in [5] it was 126 nM (active); at SRSF protein kinase 1, 1260 nM (active); on LIM domain kinase 1 it was 794 nM (active); in assay [6], 3980 nM (active); in assay [7], 10 nM (active).
Turning to `COC(=O)c1ccccc1NC1=C/C(=N\S(=O)(=O)c2cccs2)c2ccccc2C1=O`, the IC50 at Hexokinase HKDC1 was 27500 nM (inactive).
